From PubChem BioAssay AID330 (DTP/NCI, 2004)
Where “and” joins values, the source holds several entries; their conditions need not be identical. Equal values may be shown once. Inconclusive results and toxic doses are left out. The calls were made as follows: active = survival T/C of 150% or more; inactive = T/C below 125% in these data.

Test system: P388 leukemia ip, CD2F1 mice, survival T/C
Test: NCI In Vivo Anticancer Drug Screen. Data for tumor model P388 Leukemia (intraperitoneal) in CD2F1 (CDF1) mice
Conditions: endpoint: median survival time, higher = longer survival
Outline: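 Mice carrying the transplanted tumor received test compound or vehicle. Survival was recorded in each group, and the value is the treated-group measurement divided by that of the vehicle-treated control group.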

[1] = dose: 50.0 mg/kg/injection, schedule: Q01DX009 (ip), vehicle: saline with Tween-80
[2] = dose: 100.0 mg/kg/injection, schedule: Q01DX009 (ip), vehicle: saline with Tween-80
[3] = dose: 200.0 mg/kg/injection, schedule: Q01DX009 (ip), vehicle: saline with Tween-80
[4] = dose: 60.0 mg/kg/injection, schedule: Q01DX005 (ip), vehicle: saline with Tween-80
[5] = dose: 120.0 mg/kg/injection, schedule: Q01DX005 (ip), vehicle: saline with Tween-80
[6] = dose: 240.0 mg/kg/injection, schedule: Q01DX005 (ip), vehicle: saline with Tween-80

Measured: T/C

CCN(CCCl)c1ccccc1
inactive: dose: 3.12 mg/kg/injection, schedule: Q01DX009 (ip), vehicle: saline 105 % of control | dose: 6.25 mg/kg/injection, schedule: Q01DX009 (ip), vehicle: saline 106 % of control | dose: 12.5 mg/kg/injection, schedule: Q01DX009 (ip), vehicle: saline 116 % of control | dose: 25.0 mg/kg/injection, schedule: Q01DX009 (ip), vehicle: saline 106 % of control and 115 % of control

Cc1cc2c(c3c1c(=O)c1ccccc1n3C)C=CC(C)(C)O2
inactive: dose: 50.0 mg/kg/injection, schedule: Q01DX005 (ip), vehicle: saline with Tween-80 114 % of control | dose: 100.0 mg/kg/injection, schedule: Q01DX005 (ip), vehicle: saline with Tween-80 108 % of control | dose: 200.0 mg/kg/injection, schedule: Q01DX005 (ip), vehicle: saline with Tween-80 120 % of control | dose: 300.0 mg/kg/injection, schedule: Q01DX005 (ip), vehicle: saline with Tween-80 120 % of control

CC(=O)c1ccc(N(C)C(=O)C(Cl)Cl)cc1
inactive: dose: 100.0 mg/kg/injection, schedule: Q04DX003 (ip), vehicle: Klucel (hydroxypropylcellulose) (HPC) 100 % of control | dose: 200.0 mg/kg/injection, schedule: Q04DX003 (ip), vehicle: Klucel (hydroxypropylcellulose) (HPC) 100 % of control | dose: 400.0 mg/kg/injection, schedule: Q04DX003 (ip), vehicle: Klucel (hydroxypropylcellulose) (HPC) 100 % of control

Cc1cc2c(cc1C)NC(c1ccc(C(N)=S)cc1)N2
inactive: dose: 100.0 mg/kg/injection, schedule: Q04DX002 (ip), vehicle: saline with Tween-80 92 % of control | dose: 200.0 mg/kg/injection, schedule: Q04DX002 (ip), vehicle: saline with Tween-80 86 % of control

CC(=O)c1ccc(O)c(CN(CCC#N)CCC#N)c1O
inactive: [1] 96 % of control | [2] 89 % of control | [3] 90 % of control

Nc1nc(-c2ccc(Cl)c(Cl)c2)cc(-c2cc(-c3ccc(Cl)c(Cl)c3)nc(N)n2)n1
inactive: [4] 96 % of control | [5] 95 % of control | [6] 95 % of control

CC(=O)OC1C2=C(C)C(=O)OC2=CC2=CCCC(C)C21C (centres undefined)
inactive: dose: 4.0 mg/kg/injection, schedule: Q01DX009 (ip), vehicle: Klucel (hydroxypropylcellulose) (HPC) 102 % of control | dose: 8.0 mg/kg/injection, schedule: Q01DX009 (ip), vehicle: Klucel (hydroxypropylcellulose) (HPC) 91 % of control | dose: 16.0 mg/kg/injection, schedule: Q01DX009 (ip), vehicle: Klucel (hydroxypropylcellulose) (HPC) 102 % of control | dose: 32.0 mg/kg/injection, schedule: Q01DX009 (ip), vehicle: Klucel (hydroxypropylcellulose) (HPC) 109 % of control

Cc1cccc[n+]1CC(=O)C[n+]1ccccc1C
inactive: dose: 50.0 mg/kg/injection, schedule: Q01DX005 (ip), vehicle: saline 95 % of control | dose: 100.0 mg/kg/injection, schedule: Q01DX005 (ip), vehicle: saline 101 % of control

CCOC(=O)C(CNC(=O)c1ccccc1)(NC(C)=O)C(=O)OCC
inactive: dose: 12.5 mg/kg/injection, schedule: Q01DX009 (ip), vehicle: other 121 % of control | dose: 25.0 mg/kg/injection, schedule: Q01DX009 (ip), vehicle: other 121 % of control | dose: 50.0 mg/kg/injection, schedule: Q01DX009 (ip), vehicle: other 112 % of control | dose: 100.0 mg/kg/injection, schedule: Q01DX009 (ip), vehicle: other 97 % of control | dose: 200.0 mg/kg/injection, schedule: Q01DX009 (ip), vehicle: other 103 % of control

CC(CCc1ccc2c(c1)c(=N)c1ccc(N)cc1n2O)CC(C)(C)C (centres undefined)
inactive: dose: 1.56 mg/kg/injection, schedule: Q04DX002 (ip), vehicle: distilled water + Tween-80 102 % of control and 96 % of control | dose: 3.12 mg/kg/injection, schedule: Q04DX002 (ip), vehicle: distilled water + Tween-80 106 % of control and 94 % of control | dose: 6.25 mg/kg/injection, schedule: Q04DX002 (ip), vehicle: distilled water + Tween-80 100 % of control and 120 % of control | dose: 12.5 mg/kg/injection, schedule: Q04DX002 (ip), vehicle: distilled water + Tween-80 102 % of control and 98 % of control (2×)

NC(Cc1c[nH]c2ccccc12)C(=O)NCCS(=O)(=O)O (centres undefined)
inactive: [4] 102 % of control | [5] 104 % of control | [6] 99 % of control

C[C@]12CCC[C@@H](O)[C@H]1O2
inactive: dose: 100.0 mg/kg/injection, schedule: Q04DX003 (ip), vehicle: saline 104 % of control | dose: 200.0 mg/kg/injection, schedule: Q04DX003 (ip), vehicle: saline 103 % of control | dose: 400.0 mg/kg/injection, schedule: Q04DX003 (ip), vehicle: saline 109 % of control

CCCCN(CCCC)C(=N)c1ccccc1Cl
inactive: dose: 6.25 mg/kg/injection, schedule: Q01DX005 (ip), vehicle: Klucel (hydroxypropylcellulose) (HPC) 103 % of control | dose: 12.5 mg/kg/injection, schedule: Q01DX005 (ip), vehicle: Klucel (hydroxypropylcellulose) (HPC) 99 % of control

CC(C)C=C1[C@H](O)CC[C@@H]1O
inactive: dose: 100.0 mg/kg/injection, schedule: Q04DX002 (ip), vehicle: saline 101 % of control | dose: 200.0 mg/kg/injection, schedule: Q04DX002 (ip), vehicle: saline 101 % of control | dose: 400.0 mg/kg/injection, schedule: Q04DX002 (ip), vehicle: saline 96 % of control

NC(=O)c1nc2c(N)nc(-c3ccccc3)nc2nc1N
inactive: dose: 150.0 mg/kg/injection, schedule: Q01DX009 (ip), vehicle: saline with Tween-80 94 % of control | dose: 300.0 mg/kg/injection, schedule: Q01DX009 (ip), vehicle: saline with Tween-80 95 % of control

CC1(C)CC(OP(=O)(OC2CC(C)(C)N(O)C(C)(C)C2)N2CC2)CC(C)(C)N1O
inactive: dose: 100.0 mg/kg/injection, schedule: Q01DX001 (ip), vehicle: Klucel (hydroxypropylcellulose) (HPC) 100 % of control | dose: 200.0 mg/kg/injection, schedule: Q01DX001 (ip), vehicle: Klucel (hydroxypropylcellulose) (HPC) 97 % of control | dose: 400.0 mg/kg/injection, schedule: Q01DX001 (ip), vehicle: Klucel (hydroxypropylcellulose) (HPC) 104 % of control

CC(=O)CS(=O)(=O)c1ccc(NC(C)=O)cc1
inactive: dose: 50.0 mg/kg/injection, schedule: Q01DX009 (ip), vehicle: suspension in saline 105 % of control | dose: 100.0 mg/kg/injection, schedule: Q01DX009 (ip), vehicle: suspension in saline 94 % of control | dose: 200.0 mg/kg/injection, schedule: Q01DX009 (ip), vehicle: suspension in saline 101 % of control

CC(C)(C)/C(=N\NC(=O)CCCl)c1ccccc1
inactive: [1] 97 % of control | [2] 97 % of control | [3] 95 % of control

COC1=C(C)[C@@H]2CC(=O)O[C@@H]3C[C@H]4CCCC[C@]4(C)[C@@H](C1=O)[C@@]32C
inactive: dose: 50.0 mg/kg/injection, schedule: Q01DX005 (ip), vehicle: Klucel (hydroxypropylcellulose) (HPC) 95 % of control | dose: 100.0 mg/kg/injection, schedule: Q01DX005 (ip), vehicle: Klucel (hydroxypropylcellulose) (HPC) 92 % of control | dose: 200.0 mg/kg/injection, schedule: Q01DX005 (ip), vehicle: Klucel (hydroxypropylcellulose) (HPC) 93 % of control
